“Also recorded” adds a separate entry of the source.
What was measured:
[1] = tested on: hHO-1 transfected primary rat astroglial cultures; experiment: Protein carbonyl assay (ELISA) in hHO-1 transfected rat astroglia, whole-cell and mitochondrial fractions; format: cell-based; conditions: whole cell and mitochondrial compartments; for oxidative protein damage (protein carbonyls) accruing from hHO-1 transfection: 6.5 μM; for dose dependence of attenuation of oxidative protein damage: transiently transfected rat astroglia, hydrochloride
Procedure: Cells were grown in Ham's F12 and high glucose DMEM (50:50 v/v) supplemented with 10 mM HEPES, 5% heat-inactivated horse serum, 5% heat-inactivated fetal bovine serum, and penicillin-streptomycin (50 U/mL and 50 μg/mL, respectively).
(§1) Upon reaching >90% confluence, 1×10^6 cells were transiently transfected with 4.0 μg of plasmid DNA-Lipofectamine 2000 complex using Lipofectamine 2000 method according to manufacturer instructions (Invitrogen). […] 12 μg of plasmid DNA and 16 μl of Lipofectamine 2000 reagent were diluted in 1.5 mL opti-MEM I reduced serum medium and incubated for 5 minutes at room temperature with gentle mixing. The two solutions were combined, incubated at room temperature for 20 minutes to promote formation of DNA-lipid complexes and administered to the cells. 2 mL opti-MEM I reduced serum medium was added to the flasks to ensure coverage of the monolayer by the transfection mixture. Following incubation for 6 hours at 37° C., the transfection mixture was replaced with 10 mL of complete media without antibiotics.
The cells were sonicated (Sonics & Materials, Danbury, Conn.) at a power level of 50 for 3×20 s in a cooled water bath. […] Whole-cell and mitochondrial preparations were assayed for protein carbonyls as described below.
Protein carbonyls were reacted with 2,4-dinitrophenylhydrazine (DNP) and the hydrazone adducts were detected with anti-DNP antisera. Quantification was achieved by comparison with oxidized BSA standards. Oxidized (carbonylated) BSA was prepared by reacting natural BSA (at 50 mg/mL in PBS) with hypochlorous acid (5 mM) for 1 h at 37° C., followed by overnight dialysis against PBS at 4° C. […] The pellet was resuspended in 2 mL of same buffer, sonicated on ice 2×15 s at 20 W and centrifuged for 20 min at 4° C. at 1,303×g. Protein concentration of supernatant was measured with the RC DC protein assay based on the Lowry protocol (Bio-Rad Laboratories, Hercules, Calif.). All samples were adjusted to 4.0 mg protein/mL. […] Five microliters aliquots of each reaction mixture were mixed with 1 mL PBS and 200 μL replicates were added per well to 96-well immunoplates and incubated overnight at 4° C. After washing with PBS, nonspecific binding sites were blocked with 0.1% Tween 20 in PBS. […] A 6-point standard curve of reduced and oxidized BSA was generated for each plate analyzed. Specific absorbance for each sample was calculated by subtracting basal absorbance of the DNP reagent from the total absorbance.

[2] = target: T1, heme oxygenase activity in hHO-1-transfected astrocytes (Homo sapiens, UniProt P09601); experiment: In vitro HO enzyme activity (bilirubin formation) in hHO-1 transfected cells; format: cell-based; conditions: 6.5 μM, 18 h; hydrochloride
T1 construct: containing the entire protein-coding region (866 bp) of the human HO-1 gene; expressed in transfected cells; host or cells: primary rat astrocytes (also rat C6 glioma and human pancreatic tumor cells), transient transfection with Lipofectamine 2000
T1 sequence (P09601 1-288): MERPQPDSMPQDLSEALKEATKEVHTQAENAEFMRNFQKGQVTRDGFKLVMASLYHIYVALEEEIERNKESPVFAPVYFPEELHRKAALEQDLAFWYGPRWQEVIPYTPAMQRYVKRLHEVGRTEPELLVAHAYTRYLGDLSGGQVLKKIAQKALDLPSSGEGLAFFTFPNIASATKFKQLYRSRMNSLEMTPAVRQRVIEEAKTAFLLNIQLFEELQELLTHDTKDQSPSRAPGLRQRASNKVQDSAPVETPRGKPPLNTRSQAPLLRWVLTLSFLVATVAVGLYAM
Procedure: as §1
Cytosol extracts were prepared for HO activity measurement by the method of Ryter (Ryter, Kvam, Tyrrell 2000). […] Protein concentration of supernatant was measured with Bradford method. […] HO activity was calculated as nanomoles bilirubin per miligram protein per min, assuming an extinction coefficient of 40/mM/cm in chloroform (see FIG. 8).

[3] = tested on: flag-tagged HO-1 protein; experiment: Western blot of flag-tagged HO-1 protein in transfected cells; format: cell-based, human; conditions: 6.5 μM, transiently transfected cells
Procedure: Cells were rinsed twice with cold PBS (pH 7.4) and scraped in iced lysis buffer consisting of 1% Nonidet P-40, 50 mM Tris.HCl (pH 7.4), 30 mM NaCl, 25 mM β-glycerophosphate, 10 mM EDTA, 10 mM EGTA, 1 mM MgCl2, and protease inhibitors (10 mM sodium fluoride, 50 μg/mL AEBBSF, 5 μg/mL leupeptin, 5 μg/mL pepstatin, 5 μg/mL aprotinin). Supernatants were obtained by centrifugation at 15,000 rpm for 15 min at 4° C. Protein contents were determined using the Bradford method. Twenty μg aliquots plus 6×SDS-PAGE loading buffer (300 mM Tris.HCl pH 6.8, 600 mM DTT, 12% SDS, 0.6% bromophenol blue, 60% glycerol) were subjected to 10% sodium dodecyl sulfate-polyacrylamide gel electrophoresis and transferred to the polyvinylidene fluoride membranes. Nonspecific binding was blocked by incubation in Tris buffer saline (pH 7.4) containing 3% nonfat milk and 0.1% Tween 20 for 1 h at room temperature. Blots were probed with mouse anti-FLAG monoclonal antibody (1:200 diluted) and anti-β-actin monoclonal antibody (1:500 diluted). The secondary antibody consisted of horseradish peroxidase-conjugated goat anti-mouse antibody (1:4000 dilution). Protein bands were visualized by enhanced chemiluminescence using ECL western blotting reagents.

[4] = tested on: B16-BL6 cells (mouse melanoma); experiment: Metastatic B16-BL6 melanoma model, lung surface metastases; format: in vivo; conditions: vehicle control: 101
Procedure: B16-BL6 cells (mouse melanoma). B16-BL6 metastatic variant was derived from B16-F10. This cell variant was obtained from Dr. Linda D. Williams, Dept. of Cancer Biology, MD Anderson Cancer Center, Texas, USA. […] Cells were maintained at 37° C. in a humidified atmosphere (5% CO2, 95% air).
Control groups received the vehicle alone.

## Brc1ccc(CCC2(Cn3ccnc3)OCCO2)cc1.Cl [QC-56, 1-((2-(2-(4-Bromophenyl)ethyl)-1,3-dioxolan-2-yl)methyl)-1H-imidazole hydrochloride]
[1]
  oxidative protein damage (protein carbonyls) accruing from hHO-1 transfection: significantly attenuated oxidative protein damage
  dose dependence of attenuation of oxidative protein damage: significant dose dependant attenuations of oxidative protein damage; also recorded: in a dose dependent manner significantly decreased the amount of oxidative damage; also recorded: significant dose-dependant attenuations of oxidative protein damage
[2]
  heme oxygenase activity in hHO-1 transfected cells: suppressed to levels akin to those of non-transfected and sham-transfected controls; also recorded: significantly attenuated heme oxygenase activity; also recorded: significantly decreased the activity of heme oxygenase-1
[3]
  expression level of flag-tagged HO-1 protein: without affecting the expression level
[4]
  macroscopic nodules in the lungs (average): 51 nodules

## Cl.FC[C@@H]1CO[C@@](CCc2ccc(Cl)cc2)(Cn2ccnc2)O1 [QC-47, (2R,4S)-1-{2-[2-(4-Chlorophenyl)ethyl]-4-fluoromethyl-[1,3]dioxolan-2-ylmethyl}-1H-imidazole hydrochloride]
[1]
  oxidative protein damage (protein carbonyls) accruing from hHO-1 transfection: significantly attenuated oxidative protein damage
  dose dependence of attenuation of oxidative protein damage: significant dose dependant attenuations of oxidative protein damage; also recorded: in a dose dependent manner significantly decreased the amount of oxidative damage
[2]
  heme oxygenase activity in hHO-1 transfected cells: suppressed to levels akin to those of non-transfected and sham-transfected controls; also recorded: significantly attenuated heme oxygenase activity; also recorded: significantly decreased the activity of heme oxygenase-1
[3]
  expression level of flag-tagged HO-1 protein: without affecting the expression level
